Read-outs that look alike come from different tables or passages of the source.
Legend:
MALME-3M = experiment: NCI-60 anticancer screen (SRB; single dose and five doses); conditions: Homo sapiens
COLO 205 = experiment: as above; conditions: Homo sapiens
A549/ATCC = experiment: as above; conditions: Homo sapiens
MOLT-4 = experiment: as above; conditions: Homo sapiens
OVCAR-8 = experiment: as above; conditions: Homo sapiens
HOP-92 = experiment: as above; conditions: Homo sapiens
RPMI-8226 = experiment: as above; conditions: Homo sapiens
NCI-H322M = experiment: as above; conditions: Homo sapiens
MDA-MB-468 = experiment: as above; format: cell-based, human
Procedure: The methodology of the NCI anticancer screening has been described in detail elsewhere (http://www.dtp.nci.nih.gov). For detailed information, see Appendix A in the Supplementary Materials.
4.2.1. Screening of the anticancer activity against a panel of 60 cell Lines.
The methodology of the NCI anticancer screening has been described in detail elsewhere (http://www.dtp.nci.nih.gov.) Briefly, the primary anticancer assay was performed at approximately 60 human tumor cell lines panel derived from nine neoplastic diseases, in accordance with the protocol of the Drug Evaluation Branch, National Cancer Institute, Bethesda. Tested compounds were added to the culture at a single concentration (10μM) and the cultures were incubated for 48 h. End -point determinations were made with a protein binding dye, SRB. Results for each tested compound was reported as the percent of growth of the treated cells when compared to the untreated control cells. The percentage growth was evaluated spectrophotometrically versus controls not treated with test agents. […]

HOP-62 = experiment: as above; conditions: Homo sapiens
HCT-116 = experiment: as above; conditions: Homo sapiens
NCI-H522 = experiment: as above; conditions: Homo sapiens
HCC-2998 = experiment: as above
[1] = tested on: 60 human tumor cell lines panel; experiment: NCI-60 anticancer screen, whole panel (means and ranges over the cell lines); format: cell-based; conditions: for activity at 10 µM: Homo sapiens, 48 h, dose of 10 μM
NCI/ADR-RES = experiment: NCI-60 anticancer screen (SRB; single dose and five doses); conditions: Homo sapiens
NCI-H460 = experiment: as above; conditions: Homo sapiens
NCI-H226 = experiment: as above; conditions: Homo sapiens
PC-3 = experiment: as above; conditions: Homo sapiens
ACHN = experiment: as above; conditions: Homo sapiens
BT-549 = experiment: as above; conditions: Homo sapiens
SK-MEL-28 = experiment: as above; conditions: Homo sapiens
RXF 393 = experiment: as above; conditions: Homo sapiens
SK-OV-3 = experiment: as above; conditions: Homo sapiens
A498 = experiment: as above; conditions: Homo sapiens
SNB-19 = experiment: cells; conditions: Homo sapiens
[2] = 48 h, read-out: Growth Percentage
[3] = five doses, mean graph midpoint over all cell lines

Cc1[nH]c(=S)sc1C(=O)/C=C/c1ccc(F)cc1 [2c, (E)-3-(4-Fluorophenyl)-1-(4-Methyl-2-Thioxo-2,3-Dihydrothiazol-5-yl)Prop-2-En-1-One] gave a GI50 (MALME-3M) of 12.4 µM, an activity at 10 µM (MALME-3M; [2]) of 85.8% and a CC50 (MALME-3M; read-out: LC50) of 60.9 µM. It also gave an IC (TGI) (MALME-3M; read-out: TGI) of 27.5 µM, a GI50 (COLO 205; COLO 205) of 15.4 µM and a CC50 (COLO 205; COLO 205, read-out: LC50) of 80.4 µM. It also gave an IC (TGI) (COLO 205; COLO 205, read-out: TGI) of 35.2 µM, a GI50 (A549/ATCC; A549) of 12.4 µM and an activity at 10 µM (A549/ATCC; A549, 48 h, read-out: Growth Percentage) of 56%. It also gave a CC50 (A549/ATCC; A549, read-out: LC50) of 57.7 µM, an IC (TGI) (A549/ATCC; A549, read-out: TGI) of 26.8 µM and a GI50 (MOLT-4; MOLT-4) of 16.7 µM. For the same compound, the activity at 10 µM (MOLT-4; MOLT-4, 48 h, read-out: Growth Percentage) was 58.7%, the CC50 (MOLT-4; MOLT-4, read-out: LC50) was over 100 µM and the IC (TGI) (MOLT-4; MOLT-4, read-out: TGI) was 64.3 µM. For the same compound, the GI50 (OVCAR-8; OVCAR-8) was 3.99 µM, the activity at 10 µM (OVCAR-8; OVCAR-8, 48 h, read-out: Growth Percentage) was -13.6% and the CC50 (OVCAR-8; OVCAR-8, read-out: LC50) was 50.9 µM. For the same compound, the IC (TGI) (OVCAR-8; OVCAR-8, read-out: TGI) was 16.2 µM, the GI50 (HOP-92; HOP-92) was 3.35 µM and the activity at 10 µM (HOP-92; HOP-92, 48 h, read-out: Growth Percentage) was 45.4%. It also gave a CC50 (HOP-92; HOP-92, read-out: LC50) of 56 µM, an IC (TGI) (HOP-92; HOP-92, read-out: TGI) of 15.8 µM and a GI50 (RPMI-8226; RPMI-8226) of 2.85 µM. It also gave an activity at 10 µM (RPMI-8226; RPMI-8226, 48 h, read-out: Growth Percentage) of 2.32%, a CC50 (RPMI-8226; RPMI-8226, read-out: LC50) of over 100 µM and an IC (TGI) (RPMI-8226; RPMI-8226, read-out: TGI) of over 100 µM. The GI50 (NCI-H322M) was 4.1 µM, the activity at 10 µM (NCI-H322M; [2]) was 64% and the CC50 (NCI-H322M; read-out: LC50) was 44.8 µM. It also gave an IC (TGI) (NCI-H322M; read-out: TGI) of 17.9 µM, an activity at 10 µM (MDA-MB-468; Homo sapiens, 48 h, MDA-MB-468, dose of 10 μM, read-out: Growth Percentage) of -4.51% and a GI50 (MDA-MB-468; Homo sapiens, MDA-MB-468, Breast Cancer, five dose) of 1.93 µM. It also gave a CC50 (MDA-MB-468; Homo sapiens, MDA-MB-468, Breast Cancer, five dose, read-out: LC50 (the source's name)) of 25.3 µM, a TGI (MDA-MB-468; MDA-MB-468, Breast Cancer, five dose) of 6.46 µM and a GI50 (HOP-62; HOP-62) of 3.83 µM. For the same compound, the CC50 (HOP-62; HOP-62, read-out: LC50) was 48.7 µM, the IC (TGI) (HOP-62; HOP-62, read-out: TGI) was 16.2 µM and the GI50 (HCT-116; HCT-116) was 3.99 µM. It also gave an activity at 10 µM (HCT-116; HCT-116, 48 h, read-out: Growth Percentage) of 23.7%, a CC50 (HCT-116; HCT-116, read-out: LC50) of 42.5 µM and an IC (TGI) (HCT-116; HCT-116, read-out: TGI) of 15.2 µM. It also gave a GI50 (NCI-H522; NCI-H522) of 8.63 µM, an activity at 10 µM (NCI-H522; NCI-H522, 48 h, read-out: Growth Percentage) of 44.2% and a CC50 (NCI-H522; NCI-H522, read-out: LC50) of 46.8 µM. The IC (TGI) (NCI-H522; NCI-H522, read-out: TGI) was 21.2 µM, the GI50 (HCC-2998; Homo sapiens, HCC 2998) was 3.46 µM and the activity at 10 µM (HCC-2998; Homo sapiens, HCC 2998, 48 h, read-out: Growth Percentage) was 27.1%. The CC50 (HCC-2998; Homo sapiens, HCC 2998, read-out: LC50) was 36.5 µM, the TGI (HCC-2998; five-dose, Colon Cancer HCC-2998) was 13.2 µM and the activity at 10 µM ([1]; mean over the tested cell lines, read-out: Mean growth percentage) was 36.7%. The activity at 10 µM ([1]; range over the cell lines, read-out: growth percentages against most of the tested cells (lowest to highest)) was -13.6 to 119%, the “Log10GI50 _MID” value [1, 3] was -5.23 Molar and the “Log10LC50 _MID” value [1, 3] was -4.26 Molar. For the same compound, the “Log10TGI _MID” value [1, 3] was -4.65 Molar, the GI50 (NCI/ADR-RES) was 5.92 µM and the activity at 10 µM (NCI/ADR-RES; [2]) was -10.8%. The CC50 (NCI/ADR-RES; read-out: LC50) was 85 µM, the IC (TGI) (NCI/ADR-RES; read-out: TGI) was 24.9 µM and the GI50 (NCI-H460; NCI-H460) was 15.2 µM. For the same compound, the activity at 10 µM (NCI-H460; NCI-H460, 48 h, read-out: Growth Percentage) was 39.3%, the CC50 (NCI-H460; NCI-H460, read-out: LC50) was 83.3 µM and the IC (TGI) (NCI-H460; NCI-H460, read-out: TGI) was 35.6 µM. It also gave a GI50 (NCI-H226; NCI-H226) of 5.27 µM, an activity at 10 µM (NCI-H226; NCI-H226, 48 h, read-out: Growth Percentage) of 67.1% and a CC50 (NCI-H226; NCI-H226, read-out: LC50) of over 100 µM. It also gave an IC (TGI) (NCI-H226; NCI-H226, read-out: TGI) of 27.6 µM, a GI50 (PC-3; PC-3) of 5.82 µM and an activity at 10 µM (PC-3; PC-3, 48 h, read-out: Growth Percentage) of 43.4%. The CC50 (PC-3; PC-3, read-out: LC50) was over 100 µM, the IC (TGI) (PC-3; PC-3, read-out: TGI) was 29.7 µM and the GI50 (ACHN) was 7.02 µM. The activity at 10 µM (ACHN; [2]) was 47.2%, the CC50 (ACHN; read-out: LC50) was 44.3 µM and the IC (TGI) (ACHN; read-out: TGI) was 19.6 µM. It also gave a GI50 (BT-549; BT-549) of 2.34 µM, an activity at 10 µM (BT-549; BT-549, 48 h, read-out: Growth Percentage) of 23.2% and an IC (TGI) (BT-549; BT-549, read-out: TGI) of 8.27 µM. The GI50 (SK-MEL-28; SK-MEL-28) was 11.8 µM, the activity at 10 µM (SK-MEL-28; SK-MEL-28, 48 h, read-out: Growth Percentage) was 50.6% and the CC50 (SK-MEL-28; SK-MEL-28, read-out: LC50) was 51.4 µM. It also gave an IC (TGI) (SK-MEL-28; SK-MEL-28, read-out: TGI) of 24.7 µM, a GI50 (RXF 393; RXF 393) of 3.02 µM and an activity at 10 µM (RXF 393; RXF 393, 48 h, read-out: Growth Percentage) of 23.2%. For the same compound, the CC50 (RXF 393; RXF 393, read-out: LC50) was 37.2 µM, the IC (TGI) (RXF 393; RXF 393, read-out: TGI) was 13 µM and the GI50 (SK-OV-3; SK-OV-3) was 11 µM. It also gave a CC50 (SK-OV-3; SK-OV-3, read-out: LC50) of 61.8 µM, an IC (TGI) (SK-OV-3; SK-OV-3, read-out: TGI) of 26.1 µM and a GI50 (A498; A498) of 13.6 µM. The activity at 10 µM (A498; A498, 48 h, read-out: Growth Percentage, A498, dose of 10 μM) was 115%, the CC50 (A498; A498, read-out: LC50) was 52.6 µM and the IC (TGI) (A498; A498, read-out: TGI) was 26.8 µM. For the same compound, the GI50 (SNB-19; SNB-19) was 4.87 µM, the activity at 10 µM (SNB-19; SNB-19, 48 h, read-out: Growth Percentage) was 33.7% and the CC50 (SNB-19; SNB-19, read-out: LC50) was 43.1 µM. The IC (TGI) (SNB-19; SNB-19, read-out: TGI) was 17.8 µM.
